Test results reported in patent US20030224992A1, “Transcription factor modulators and uses thereof” (Praecis Pharmaceuticals Inc., priority 2002, published 2003).

Test system: androgen responsive gene, kallikrein 3 (PSA II transcripts) in LNCaP cells
Experiment: Down-regulation of androgen receptor responsive gene expression by ARE (real time PCR)
Type: cell-based
Settings: electroporation, 1, 5 or 20 μM, 10 nM DHT, 4 hours

5′-AGTCTACGAGTGGGGTTCTTTTTTA-3′ (SEQ ID NO: 24) (DNA AGTCTACGAGTGGGGTTCTTTTTTA; chemistry not given here) [scrambled ARE]
steady state levels of PSA II transcripts normalized to actin (DHT induction): this was not observed
